# Like-named read-outs stand apart in the source and are kept apart here.
# How the values were obtained:
# SW48 cells = assay: Proliferation assay SW48 (CellTiterGlo); format: cell-based; conditions: SW48 colon carcinoma cells, 96 hours, CellTiterGlo, geometric mean of at least 2, read-out: Proliferation Assay SW48 GI50
# Procedure, shortened: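 SW48 cells, 2,000/well, treated after overnight seeding with eight 3-fold compound dilutions (0.1% DMSO) for 96 hours at 37° C. Viability read as ATP by CellTiterGlo luminescence, normalised to a day-0 plate and vehicle to give % growth; GI50 is geometric mean of ≥2 independent replicates.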
# DLD1-WRN-KO cells = assay: Proliferation assay DLD1-WRN-KO (CellTiterGlo, off-target effects); format: cell-based; conditions: 96 hours, geometric mean of at least 2
# Procedure, shortened: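 DLD1 cells with CRISPR knockout of WRN were exposed overnight-seeded to eight 3-fold compound dilutions (0.1% DMSO) for 96 h at 37 °C. Viability was read as ATP by CellTiterGlo luminescence against a day-0 plate, giving GI50 and residual viability at top concentration.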
# [1] = target: T1, WRN helicase (aa N517-P1238) (Homo sapiens, UniProt Q14191); assay: WRN ATPase assay (DNA dependent ATP hydrolysis, ADP-Glo); format: biochemical; conditions: 3 hours pre-incubation, 300 micromolar ATP, FLAP26 DNA; geometric mean of at least 2
# T1 construct: The core helicase motif of the WRN protein (aa N517-P1238) was produced for this assay; His (N); ZZ (N); 3C protease cleavage site (N); made in house; host or cells: Sf21 insect cells (baculovirus; virus and BIICs made in SF9)
# T1 sequence (Q14191 517-1238): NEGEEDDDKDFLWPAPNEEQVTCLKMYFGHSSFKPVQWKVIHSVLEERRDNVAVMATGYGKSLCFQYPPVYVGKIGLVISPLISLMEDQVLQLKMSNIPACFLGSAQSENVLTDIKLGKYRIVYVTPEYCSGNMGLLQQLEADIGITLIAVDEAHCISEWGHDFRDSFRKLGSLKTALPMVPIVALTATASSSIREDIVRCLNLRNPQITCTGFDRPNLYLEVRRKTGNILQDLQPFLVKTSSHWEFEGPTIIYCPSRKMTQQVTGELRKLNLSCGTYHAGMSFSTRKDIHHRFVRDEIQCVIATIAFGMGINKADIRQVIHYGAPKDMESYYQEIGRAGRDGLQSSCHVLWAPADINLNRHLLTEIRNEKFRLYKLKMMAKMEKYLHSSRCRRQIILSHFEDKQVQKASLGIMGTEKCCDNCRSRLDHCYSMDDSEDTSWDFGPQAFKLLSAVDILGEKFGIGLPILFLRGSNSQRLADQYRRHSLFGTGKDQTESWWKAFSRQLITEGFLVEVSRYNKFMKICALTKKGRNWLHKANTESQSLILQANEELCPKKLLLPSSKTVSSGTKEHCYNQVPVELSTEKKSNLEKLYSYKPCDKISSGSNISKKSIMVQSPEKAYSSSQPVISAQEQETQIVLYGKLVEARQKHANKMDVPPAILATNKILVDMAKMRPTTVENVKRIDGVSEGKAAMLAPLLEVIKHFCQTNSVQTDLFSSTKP
# Procedure, shortened: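 DNA-dependent ATP hydrolysis detected as ADP by ADP-Glo luminescence, using 300 μM ATP, 0.2 nM FLAP26 substrate and 10 nM WRN aa N517-P1238 (Tris pH 7.5 buffer, 2 mM MgCl2, 50 mM NaCl). IC50s fitted from normalized duplicate half-log dilutions; reported as geometric means of at least 2 replicates.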
"GI50 (SW48 cells; Homo sapiens, SW48, 96 h) [µM]",GI50 (DLD1-WRN-KO cells) [µM],IC50 [1] [µM],GI50 (SW48 cells) [µM],SMILES
5,> 10,0.09,–,"CC(=O)N1CC=C(c2nc3n(CC(=O)Nc4ccc(S(F)(F)(F)(F)F)cc4)c(C)c(N4CCN(C(C)=O)CC4)c(=O)n3n2)CC1 [Example 71, 2-(2-(1-acetyl-1,2,3,6-tetrahydropyridin-4-yl)-6-(4-acetylpiperazin-1-yl)-5-methyl-7-oxo-[1,2,4]triazolo[1,5-a]pyrimidin-4(7H)-yl)-N-(4-(pentafluoro-l6-sulfaneyl)phenyl)acetamide]"
0.5,> 10,0.2,–,"CCc1c(N2CCN(C(=O)c3ccnc(C)c3O)CC2)c(=O)n2nc(C3=CCOCC3)nc2n1CC(=O)Nc1ccc(C(F)(F)F)cc1Cl [Example 49, N-(2-chloro-4-(trifluoromethyl)phenyl)-2-(2-(3,6-dihydro-2H-pyran-4-yl)-5-ethyl-6-(4-(3-hydroxy-2-methylisonicotinoyl)piperazin-1-yl)-7-oxo-[1,2,4]triazolo[1,5-a]pyrimidin-4(7H)-yl)acetamide]"
0.8,5,0.1,–,"CC(=O)N1CCN(c2c(C)n(CC(=O)Nc3ccc(C(F)(F)F)cc3)c3nc(C4=CCN(C(=O)OC(C)(C)C)CC4)nn3c2=O)CC1 [Example 105, tert-butyl 4-(6-(4-acetylpiperazin-1-yl)-5-methyl-7-oxo-4-(2-oxo-2-((4-(trifluoromethyl)phenyl)amino)ethyl)-4,7-dihydro-[1,2,4]triazolo[1,5-a]pyrimidin-2-yl)-3,6-dihydropyridine-1(2H)-carboxylate]"
0.9,> 10,0.2,–,"CC(=O)N1CCN(c2c(C)n(CC(=O)Nc3cc(Cl)c(C(F)(F)F)cc3C)c3nc(C4=CCOCC4)nn3c2=O)CC1 [Example 108, 2-(6-(4-acetylpiperazin-1-yl)-2-(3,6-dihydro-2H-pyran-4-yl)-5-methyl-7-oxo-[1,2,4]triazolo[1,5-a]pyrimidin-4(7H)-yl)-N-(5-chloro-2-methyl-4-(trifluoromethyl)phenyl)acetamide]"
4,> 10,0.9,–,"CC(=O)N1CCN(c2c(C)n(CC(=O)Nc3ccc(C(F)(F)F)cc3C)c3nc(C4=CCOCC4)nn3c2=O)CC1 [Example 64, 2-(6-(4-acetylpiperazin-1-yl)-2-(3,6-dihydro-2H-pyran-4-yl)-5-methyl-7-oxo-[1,2,4]triazolo[1,5-a]pyrimidin-4(7H)-yl)-N-(2-methyl-4-(trifluoromethyl)phenyl)acetamide]"
> 10,> 10,0.6,–,"Cc1nnc(C(=O)N2CCN(c3c(C)n(CC(=O)Nc4ccc(C(F)(F)F)cc4)c4nc(C5=CCOCC5)nn4c3=O)CC2)[nH]1 [Example 159, 2-(2-(3,6-dihydro-2H-pyran-4-yl)-5-methyl-6-(4-(5-methyl-4H-1,2,4-triazole-3-carbonyl)piperazin-1-yl)-7-oxo-[1,2,4]triazolo[1,5-a]pyrimidin-4(7H)-yl)-N-(4-(trifluoromethyl)phenyl)acetamide]"
–,> 10,0.3,3,"CCc1c(N2CCN(C(=O)C3CCOC3)CC2)c(=O)n2nc(C3=CCCCO3)nc2n1CC(=O)Nc1ccc(C(F)(F)F)cc1 (stereo not drawn) [Example 60, 2-(2-(3,4-dihydro-2H-pyran-6-yl)-5-ethyl-7-oxo-6-(4-(tetrahydrofuran-3-carbonyl)piperazin-1-yl)-[1,2,4]triazolo[1,5-a]pyrimidin-4(7H)-yl)-N-(4-(trifluoromethyl)phenyl)acetamide]"
7,> 10,5,–,"CCc1c(N2CCN(C(=O)c3ncnc(C)c3OC)CC2)c(=O)n2nc(C3=CCOCC3)nc2n1CC(=O)Nc1ccc(C(F)(F)F)cc1C [Example 34, 2-(2-(3,6-dihydro-2H-pyran-4-yl)-5-ethyl-6-(4-(5-methoxy-6-methylpyrimidine-4-carbonyl)piperazin-1-yl)-7-oxo-[1,2,4]triazolo[1,5-a]pyrimidin-4(7H)-yl)-N-(2-methyl-4-(trifluoromethyl)phenyl)acetamide]"
1,> 10,0.08,–,"CCc1c(C2CCN(C(C)=O)CC2)c(=O)n2nc(C3=CCCCO3)nc2n1CC(=O)Nc1ccc(C(F)(F)F)cc1 [Example 138, 2-(6-(1-acetylpiperidin-4-yl)-2-(3,4-dihydro-2H-pyran-6-yl)-5-ethyl-7-oxo-[1,2,4]triazolo[1,5-a]pyrimidin-4(7H)-yl)-N-(4-(trifluoromethyl)phenyl)acetamide]"
4,> 10,0.2,–,"CC(=O)N1CCN(c2c(C)n(CC(=O)Nc3ccc(C(F)(F)F)cc3)c3nc(C4=CCCCO4)nn3c2=O)CC1 [Example 109, 2-(6-(4-acetylpiperazin-1-yl)-2-(3,4-dihydro-2H-pyran-6-yl)-5-methyl-7-oxo-[1,2,4]triazolo[1,5-a]pyrimidin-4(7H)-yl)-N-(4-(trifluoromethyl)phenyl)acetamide]"
> 10,> 10,0.5,–,"Cc1c(N2CCN(C(=O)c3c(F)ccnc3O)CC2)c(=O)n2nc(C3=CCOCC3)nc2n1CC(=O)Nc1ccc(C(F)(F)F)cc1 [Example 28, 2-(2-(3,6-dihydro-2H-pyran-4-yl)-6-(4-(4-fluoro-2-hydroxynicotinoyl)piperazin-1-yl)-5-methyl-7-oxo-[1,2,4]triazolo[1,5-a]pyrimidin-4(7H)-yl)-N-(4-(trifluoromethyl)phenyl)acetamide]"
4,> 10,0.6,–,"CC(=O)N1CCN(c2c(C)n(CC(=O)Nc3ccc(C(F)(F)F)c(F)c3)c3nc(C4=CCOCC4)nn3c2=O)CC1 [Example 90, 2-(6-(4-acetylpiperazin-1-yl)-2-(3,6-dihydro-2H-pyran-4-yl)-5-methyl-7-oxo-[1,2,4]triazolo[1,5-a]pyrimidin-4(7H)-yl)-N-(3-fluoro-4-(trifluoromethyl)phenyl)acetamide]"
8,> 10,2,–,"CC(=O)N1CCN(c2c(C)n(CC(=O)Nc3ccc(C(F)(F)F)nc3Cl)c3nc(N4CCCC(F)C4)nn3c2=O)CC1 (stereo not drawn) [Example 5, 2-(6-(4-acetylpiperazin-1-yl)-2-(3-fluoropiperidin-1-yl)-5-methyl-7-oxo-[1,2,4]triazolo[1,5-a]pyrimidin-4(7H)-yl)-N-(2-chloro-6-(trifluoromethyl)pyridin-3-yl)acetamide]"
1,> 10,0.1,–,"CCc1c(N2CCN(C(C)=O)CC2)c(=O)n2nc(C3=CCOCC3)nc2n1CC(=O)Nc1ccc(C(F)(F)F)cc1 [Example 54, 2-(6-(4-acetylpiperazin-1-yl)-2-(3,6-dihydro-2H-pyran-4-yl)-5-ethyl-7-oxo-[1,2,4]triazolo[1,5-a]pyrimidin-4(7H)-yl)-N-(4-(trifluoromethyl)phenyl)acetamide]"
2,7,0.9,–,"CC(=O)N1CCN(c2c(C)n(CC(=O)Nc3ccc(C(F)(F)F)cc3)c3nc(-c4ccccc4)nn3c2=O)CC1 [Example 130, 2-(6-(4-acetylpiperazin-1-yl)-5-methyl-7-oxo-2-phenyl-[1,2,4]triazolo[1,5-a]pyrimidin-4(7H)-yl)-N-(4-(trifluoromethyl)phenyl)acetamide]"
1,> 10,0.1,–,"CCc1c(C2CCN(C(C)=O)CC2)c(=O)n2nc(C3=CCC(OC)CC3)nc2n1CC(=O)Nc1ccc(C(F)(F)F)cc1 (stereo not drawn) [Example 139, 2-(6-(1-acetylpiperidin-4-yl)-5-ethyl-2-(4-methoxycyclohex-1-en-1-yl)-7-oxo-[1,2,4]triazolo[1,5-a]pyrimidin-4(7H)-yl)-N-(4-(trifluoromethyl)phenyl)acetamide]"
6,> 10,2,–,"COCC1CCN(c2nc3n(CC(=O)Nc4ccc(C(F)(F)F)cc4)c(C)c(N4CCN(C(C)=O)CC4)c(=O)n3n2)C1 (stereo not drawn) [Example 133, 2-(6-(4-acetylpiperazin-1-yl)-2-(3-(methoxymethyl)pyrrolidin-1-yl)-5-methyl-7-oxo-[1,2,4]triazolo[1,5-a]pyrimidin-4(7H)-yl)-N-(4-(trifluoromethyl)phenyl)acetamide]"
0.3,> 10,0.05,–,"Cc1c(C2CCN(C(=O)c3c(F)ccc(F)c3O)CC2)c(=O)n2nc(C3=CCCCO3)nc2n1CC(=O)Nc1ccc(C(F)(F)F)cc1 [Example 137, 2-(6-(1-(3,6-difluoro-2-hydroxybenzoyl)piperidin-4-yl)-2-(3,4-dihydro-2H-pyran-6-yl)-5-methyl-7-oxo-[1,2,4]triazolo[1,5-a]pyrimidin-4(7H)-yl)-N-(4-(trifluoromethyl)phenyl) acetamide]"
2,> 10,0.1,–,"CC(=O)N1CCN(c2c(C)n(CC(=O)Nc3ccc(S(F)(F)(F)(F)F)cc3Cl)c3nc(C4=CCOCC4)nn3c2=O)CC1 [Example 73, 2-(6-(4-acetylpiperazin-1-yl)-2-(3,6-dihydro-2H-pyran-4-yl)-5-methyl-7-oxo-[1,2,4]triazolo[1,5-a]pyrimidin-4(7H)-yl)-N-(2-chloro-4-(pentafluoro-l6-sulfaneyl)phenyl)acetamide]"
